According to patent US20230201213A1, “USE OF EZH2 INHIBITORS FOR TREATING CANCER” (Epizyme, Inc., priority 2020, published 2023):
Values joined by “and” are separate entries in the source; they are usually repeats but may differ in a detail not shown here. Equal entries are not always repeated.

Legend:
Format in all cases: in vivo, human
intratumoral B cells = assay: Multiplexed immunofluorescence (anti-CD20) of paired pre-/post-dose tumor biopsies, phase 2 mesothelioma study: intratumoral compartment
Description: (§1) In this example, subjects were enrolled in a phase 2, multicenter, open-label, 2-part, single-arm, 2-stage study to assess PK, safety and efficacy of continuous oral dosing with tazemetostat 800 mg, twice daily in adult subjects with relapsed or refractory malignant mesothelioma. Subjects continued on study treatment until disease progression, development of an unacceptable toxicity, withdrawal of consent, or termination of the study. Assessments of clinical response were performed about every 6 weeks while on study. Subjects discontinued study treatment at the time of disease progression, development of an unacceptable toxicity, withdrawal of consent, or termination of the study.
(§2) Tumor tissue biopsy samples were collected for pre-dose tumor sampling at screening and post-dose at or following the first or second tumor assessments (Cycle 3 or 5) according to local clinical site procedures, and tissue blocks processed for formalin fixation and paraffin embedding (FFPE). These FFPE samples were stored at ambient temperature. Pairs of pre- and post-treatment samples were available from 12 subjects. FFPE tissue blocks were available for 9 cases (18 tissue samples) and slides from 3 subjects were available.
(§3) Preparation of tumor tissue was performed as follows: tumor tissue sections of 4-5 micron thickness containing representative tumor cells as determined by a trained pathologist were serially-cut from the same block for two patient cases. Sections were mounted on Superfrost plus slides (Fisherbrand™) and air-dried overnight. Where possible, sections from pre- and post-treatment from the same patient case were mounted on the same slide to reduce reagent use and to diminish technical variability of multiplex, serial antibody staining between pre- and post-treatment samples. Pre- and post-treatment samples passed QC evaluation for 10 biopsy pairs, and these samples were advanced to multiplexed immunofluorescence (IF) staining.
(§4) IF staining of a panel of pairs of Cy3 and Cy5-labeled antibodies was performed. Initially an autofluorescence removal process was conducted. Subsequently, 8 rounds of antibody staining were done with deactivation of the fluorescent dyes via alkaline oxidation occurring prior to each subsequent round of antibody staining.
(§5) As many regions of interest (ROI) were selected for spectral analysis for each sample, and the number ranged from 5-39 across the collection of samples. Few of the ROI failed QC for each sample, typically no more than 1-2 in each sample. There resulting number of ROI successfully imaged and analyzed ranged from 4-39. In toto, 340 of 355 ROI passed QC assessment (95.8%).
(§6) B cell content based on the number of individual cells stained with anti-CD20 in intratumoral and stromal compartments was determined and B cell density was calculated on a mm^2 basis. Creation of intratumoral/stromal masks using PanCK and EMA staining allowed separation of intratumoral from stromal signals. The mean of B cell density from each ROI that passed QC was calculated for each pre- and post-treatment biopsy sample.

stromal B cells = assay: Multiplexed immunofluorescence (anti-CD20) of paired pre-/post-dose tumor biopsies, phase 2 mesothelioma study: stromal compartment
Description: as §1, §2, §3, §4, §5, §6

tumor-associated B cells = assay: RNA-SEQ gene signature analysis of pre-/post-tazemetostat mesothelioma tumor samples; settings: post- vs pre-tazemetostat
Description: as §1, §2
The pre- and post-tazemetostat samples were also analyzed using RNA-SEQ to determine if the decrease in intratumoral B cells and stromal B cells could be observed genetically.

[1] = tested on: tumor-infiltrating B cells; assay: Bulk RNA-sequencing of pre-/post-tazemetostat epithelioid sarcoma tumor samples; settings: post- vs pre-tazemetostat
Description: as §1, with “open-label,” for “open-label, 2-part,”, “safety, tolerability” for “PK, safety”, “daily and 1600 mg once daily” for “daily”, “INI1-negative tumors” for “relapsed”, “relapsed/refractory synovial sarcoma. The patient cohorts in the study also included patients with epithelioid sarcoma.” for “refractory malignant mesothelioma.”, “8” for “6”
Tumor tissue biopsy samples from patients with epithelioid sarcoma were collected for pre-dose tumor sampling at screening and post-dose at or following the first or second tumor assessments (Cycle 3 or 5) according to local clinical site procedures, and tissue blocks processed for formalin fixation and paraffin embedding (FFPE), These FFPE samples were stored at ambient temperature. Pairs of pre- and post-treatment samples were available from 22 subjects.
Pre- and post-tazemetostat samples were analyzed using bulk RNA-sequencing to determine specific gene expression changes and also tumor-infiltrating B cell signatures. Several different B cell signatures and one Macrophage signature were analyzed including B cell memory_CIBERSORT, B cell memory_CIBERSORT-ABS, B cell memory_XCELL, B cell naïve_CIBERSORT, B cell naïve_CIBERSORT-ABS. B cell naïve_XCELL, B cell plasma_CIBERSORT, B cell plasma_CIBERSORT-ABS, B cell plasma_XCELL, B cell_EPIC, B cell_MCPCOUNTER, B cell_QUANTISEQ, B cell_TIMER, B cell_XCELL, Class-switched memory B cell_XCELL, and Macrophage_EPIC. […] Finally, two B cell-specific marker genes, CD19 and CD20, were also analyzed in pre- and post-tazemetostat administration samples.

[2] = 10 mesothelioma patients, post- vs pre-dose
[3] = mesothelioma, paired biopsies of 10 patients
[4] = one line per patient (Pt ID), post-dose biopsy (Cycle 3 or 5), tazemetostat 800 mg twice daily oral, relapsed or refractory malignant mesothelioma, CD20 staining, mean of ROI
[5] = one line per patient (Pt ID), post-dose vs pre-dose biopsy, 800 mg twice daily, mesothelioma, negative = increase

Structure (SMILES): CCN(c1cc(-c2ccc(CN3CCOCC3)cc2)cc(C(=O)NCc2c(C)cc(C)[nH]c2=O)c1C)C1CCOCC1 [tazemetostat]
- % decrease in intratumoral B cell density (mean of means) (intratumoral B cells; [2]): 77%
- median % decrease in intratumoral B cell density (intratumoral B cells; [2]): 100%
- B cell post-tazemetostat intratumoral, mean of means (intratumoral B cells; mean over 10 patients, post-dose, pre-dose mean of means 35): 8 cell/mm^2
- cases in which number and density of intratumoral B cells decreased to zero (intratumoral B cells; mesothelioma, 10 patients): 5 cases
- patients with a decrease of intratumoral B cells (intratumoral B cells; [3]): 8/10
- B cell post-tazemetostat intratumoral Mean (cell/mm^2) (intratumoral B cells; [4]): 0 cell/mm^2 (5×) and 3 cell/mm^2 and 43 cell/mm^2 and 11 cell/mm^2 and 22 cell/mm^2 and 2 cell/mm^2
- % decrease B cell per sqmm in post-dose samples (intratumoral) (intratumoral B cells; [5]): 100% (5×) and 95% and −529% and 25% and 90%
- increase in B cell content in one sample (intratumoral) (intratumoral B cells; one sample that biased the mean decrease): > 500%
- % decrease in stromal B cell density (mean of means) (stromal B cells; [2]): 90%
- median % decrease in stromal B cell density (stromal B cells; [2]): 99%
- B cell post-tazemetostat stromal, mean of means (stromal B cells; mean over 10 patients, post-dose, pre-dose mean of means 184): 18 cell/mm^2
- cases in which number and density of stromal B cells decreased to zero (stromal B cells; mesothelioma, 10 patients): 5 cases
- patients with a decrease of stromal B cells (stromal B cells; [3]): 9/10
- B cell post-tazemetostat stromal Mean (cell/mm^2) (stromal B cells; [4]): 0 cell/mm^2 (5×) and 1 cell/mm^2 and 3 cell/mm^2 and 101 cell/mm^2 and 72 cell/mm^2 and 6 cell/mm^2
- % decrease B cell per mm^2 in post-dose samples (stromal) (stromal B cells; [5]): 100% (4×) and 99% (3×) and 90% and −418% and 29%
- macrophage gene signature (Marcophage_EPIC) (tumor-associated B cells): showed no change
- relative expression level of six B cell gene signatures (B cell memory_XCELL, B cell_MCPCOUNTER, B cell naïve_CIBERSORT, B cell_QUANTISEQ, B cell naïve_CIBERSORT-ABS, B cell_XCELL) (tumor-associated B cells; FIG. 6): showed a decrease in relative expression level
- relative expression levels of several B cell signatures ([1]; FIG. 7A and 7B): showed decreases in relative expression levels
- level of CD19 (B cell-specific marker gene) ([1]; FIG. 8): decreased
- level of CD20 (B cell-specific marker gene) ([1]; FIG. 8): decreased
